Data from patent EP0268267A2, “Guanidinomethylbenzoic acid derivatives, compositions containing the same, processes for preparing the same, and the use of the same in the manufacture of medicaments of therapeutic value” (NIPPON HYPOX LABORATORIES INCORPORATED, priority 1986, dated 1988).
Where a name gives a salt, the structure may show the parent alone.

Experiments:
Stress Induced Ulcer = experiment: Effect on stress induced ulcer (water-immersion restraint stress, method of Takagi et al.); assay type: in vivo, Male rats of Sprague Dawley (SD) strain; conditions: oral, 100 mg/kg in 1% CMC, given 15 min before 18 h water immersion at 24°C; for Ulcer inhibition rate (%): relative to group without test compound; for Ulcer index (mm): total major axis of ulcers per animal, control 94.4 ± 25.1
Experimental: Test Method 1 (Effect on Stress Induced Ulcer) The method of Takagi et al. (Jap. J. Pharmacol., 18, 9 ([…])) was followed. Male rats of Sprague Dawley (SD) strain each weighing from 180 to 200 g (8 weeks old and 6 to 8 rats in one group) were fasted for 24 hours, followed by oral administration of the above test compounds which had been suspended in 1% CMC aqueous solution. Fifteen minutes later, the animals were placed in a stress cage which was then immersed in a water bath at 24°C at the depth of the […] of the animals. After being immersed for 18 hours, the animals were sacrificed under etherization to remove the stomachs. Each of the stomachs was injected with 12 ml of 1% formaldehyde solution and then immersed in a 1% formaldehyde solution for 15 minutes. The stomach was incised along its greater curvature and examined for the gastric lesions under a stereomicroscope for the major axis (mm) of each ulcer that had developed on the gastric mucous membrane. The total major axis (mm) per animal was taken as the ulcer index of the animal. The ulcer inhibition rate was calculated from the following equation. The ED50 value was obtained from the dose-ulcer inhibition rate curve. Ulcer inhibition rate (%) = (1 - ? ) x 100 (wherein l is the ulcer index of a group without the test compounds administered, and m is the ulcer index of a group having such compounds administered).

Male mice of ddY strain = experiment: Acute toxicity - minimum lethal dose (MLD); assay type: in vivo; conditions: oral administration in 1% CMC, fasted overnight, observation over 7 days
From the text: Test Method 2 (Acute Toxicity - Minimum Lethal Dose (MLD))
Male mice of ddY strain each weighing from 20 to 22 g (4 weeks old and 5 mice in one group) were fasted overnight, followed by oral administration of the test compounds which had been suspended in 1% CMC aqueous solution. Observation was made over 7 days to determine the minimum lethal dose (MLD).

SMILES | Ulcer inhibition rate (%) (Stress Induced Ulcer) | Ulcer index (mm) (Stress Induced Ulcer) | minimum lethal dose (MLD) (Male mice of ddY strain)
Cc1ccc(NC(=O)c2ccc(CNC(=N)N)cc2)cc1.Cl [A, N-(4ʹ-methylphenyl)-4-guanidinomethylbenzamide hydrochloride] | 90.3 | 9.2 ± 3.4 | 
N=C(N)NC[C@H]1CC[C@H](C(=O)Nc2ccccc2)CC1 [E, N-(phenyl)-trans-4-guanidinomethyl-cyclohexanecarboximide hydrochloride, reference compound] | 35.0 | 61.4 ± 14.0 | ≤ 1,000 mg/kg
Cl.N=C(N)NCc1ccc(C(=O)Nc2ccc(Cl)cc2)cc1 [B, N-(4ʹ-chlorophenyl)-4-guanidinomethylbenzamide hydrochloride] | 80.5 | 18.4 ± 8.8 | 
CCOC(=O)c1ccccc1NC(=O)c1ccc(CNC(=N)N)cc1.Cl [C, N-(2ʹ-ethoxycarbonylphenyl)-4-guanidinomethylbenzamide hydrochloride] | 84.1 | 15.0 ± 14.7 | 
COc1ccccc1NC(=O)c1ccc(CNC(=N)N)cc1.Cl [Compound D, N-(2ʹ-methoxyphenyl)-4-guanidinomethylbenzamide hydrochloride] | 74.8 | 23.8 ± 14.9 | 
